Experimental data as given in patent publication US6812034B2, “Fetuin-MGP-mineral complex in serum assayed to determine calcification risk” (The Regents of the University of California, priority 2000, dated 2004).

What was measured:
[1] = system: aorta calcification in rats treated with vitamin D plus warfarin; experiment: von Kossa staining for calcification in rats treated with vitamin D plus warfarin; type: in vivo, rat; conditions: 84 h; for Histology Score Observer #1 x ± S.D. / Histology Score Observer #2 x ± S.D.: score 0-5
Protocol: (§1) For measurement of mineral accumulation in arteries, each tissue was removed within 30 minutes of death and immediately frozen. Tissues were subsequently washed extensively with buffer and extracted with 1 ml of 10% formic acid for 24 h at room temperature, as described. Calcium levels in serum were determined colorimetrically using cresolphthalein complexone (Sigma) and phosphate levels in serum and in acid tissue extracts were determined calorimetrically as described (Zhu et al. (1994) Cardiology, 85: 370-377). Tissue sectioning and staining were carried out by Biomedical Testing Services, Inc., (San Diego, Calif.).
Male Sprague Dawley rats were fed ad libitum with rodent diet 5001 (Purina Mills Inc., St. Louis, Mo.), a diet that is 0.67% phosphorus and 0.95% calcium by weight. This diet contains 500 μg per kg of phylloquinone and has no added menadione. In all experiments, animals were killed by exsanguination while under metofane anesthetic, and selected tissues were removed immediately and fixed in 10% buffered formalin or frozen at −20° C. for later studies. All animal experiments were approved by the UCSD animal subjects committee.

[2] = serum levels of calcium and phosphate in rats treated with vitamin D plus warfarin; type: in vivo, rat
Protocol: as §1, with “Calif.). […]” for “Calif.).”

[3] = system: warfarin-induced artery calcification; experiment: artery calcification in rats treated with warfarin for 2 or 4 weeks; type: in vivo, rat; conditions: 6.25 mg P/kg/day plus warfarin, both carotid arteries
Protocol: as §1, with “Tissues” for “For measurement of mineral accumulation in arteries, each tissue was removed within 30 minutes of death and immediately frozen. Tissues”, “Calif.). The effect of bisphosphonates on artery calcification was also examined in rats treated with warfarin alone using procedures which have been described elsewhere (Price et al. (1998) Arterioscler. Thromb. Vasc. Biol. 18: 1400-1407).” for “Calif.).”

[4] = weight, tibia length and serum calcium and phosphate in warfarin-treated rats; type: in vivo, rat
Source text: This procedure induces artery calcification within 2 weeks without the presence of hypercalcemia.

[5] = filtration of serum through a 300 kDa membrane; type: in vivo, rat
Protocol: In a typical experiment, blood was obtained from 2 control rats and from 2 rats 6 h after a dose of 8 mg etidronate/100 g, and each blood sample was immediately placed into a 2.5 ml gold top vacutainer tube (SST gel and clot activator tube, Becton Dickinson). […] The filtrate and retentate were then analyzed to determine calcium, phosphate, and volume. The typical filtrate volume recovered was 0.70 ml and the typical retentate volume recovered was 0.26 ml.

[6] = centrifugation of serum at 16,000 x g; type: in vivo, rat
Protocol: The effect of centrifugation on the serum mineral complex was investigated in serum samples obtained 6 h after administration of etidronate at doses of 8 mg/100 g and 32 mg/100 g body weight. At the lower dose, no significant amount of calcium, phosphate, or MGP was sedimented after centrifugation for 30 min at 16,000×g. At the higher dose, a well-defined translucent pellet was obtained after centrifugation for 30 min at 16,000×g. This pellet was dissolved in 1 ml of 50 mM HCl and analyzed for calcium, phosphate, and MGP.

[7] = system: growth plate cartilage mineralization; experiment: microradiograph of the proximal tibia; type: in vivo, rat; conditions: 4 mg to 100 g rats at t=0 and 24 h, killed at 48 h
Protocol: These rats were exsanguinated at t=48 h. Serum was obtained at each time point and stored at -20° C. until later analysis. Tibias from the rats killed at 48 h, as well as from age-matched controls, were removed, cleaned of adhering tissue, and fixed in 70% ethanol. Tibia samples were embedded in plastic and cut into sections of 500 microns by Pathology Associates International (Frederickberg, Md.). The resulting sections were microradiographed using a Hewlett-Packard Model […] Faxitron Xray machine. All animal experiments were approved by the UCSD animal subjects committee.

[8] = system: arotinoid-induced bone resorption; conditions: relative antiresorption potency in the rat, etidronate = 1; cited from earlier work
[9] = previous study (Price et al. 1981); cited from earlier work
[10] = system: normal bone mineralization; conditions: parenteral; cited from earlier work
[11] = 6.25 mg P/kg/day, 84 h after first vitamin D
[12] = 6.25 mg P/kg/day plus warfarin, 4 weeks
[13] = 8 mg/100 g sc, 6 h, 0.26 ml retentate, 300 kDa membrane
[14] = 8 mg/100 g sc, 6 h, 0.7 ml filtrate, 300 kDa membrane
[15] = 8 mg/100 g sc, 6 h, 1 ml serum prior to filtration
[16] = 8 mg/100 g, 6 h serum incubated at room temperature for 1 day
[17] = 32 mg/100 gm sc, 6 h, 1 ml pooled serum prior to centrifugation
[18] = 32 mg/100 gm sc, 6 h, 16,000 x g 30 min

Compound: CC(O)(P(=O)(O)O)P(=O)(O)O [Etidronate, (1-hydroxyethylylidene)-bisphosphonate]
- Histology Score Observer #1 x ± S.D. ([1]; 0.25 mg P/kg/day sc): 3.5 ± 1.3
- Histology Score Observer #2 x ± S.D. ([1]; 0.25 mg P/kg/day sc): 4.5 ± 1.0
- Histology Score Observer #1 x ± S.D. ([1]; 1.25 mg P/kg/day sc): 1.8 ± 2.4
- Histology Score Observer #2 x ± S.D. ([1]; 1.25 mg P/kg/day sc): 2.0 ± 2.4
- Histology Score Observer #1 x ± S.D. ([1]; 6.25 mg P/kg/day sc): 0.3 ± 0.5
- Histology Score Observer #2 x ± S.D. ([1]; 6.25 mg P/kg/day sc): 0.1 ± 0.3
- extent of von Kossa staining in the abdominal aorta ([1]; 6.25 mg P/kg/day, highest dose tested): significantly reduced
- Serum Ca ([2]; 0.25 mg P/kg/day, 84 h): 13.7 ± 1.2 mg/dL
- Serum P ([2]; 0.25 mg P/kg/day, 84 h): 10.8 ± 0.5 mg/dL
- Serum Ca ([2]; 1.25 mg P/kg/day, 84 h): 13.5 ± 0.7 mg/dL
- Serum P ([2]; 1.25 mg P/kg/day, 84 h): 9.5 ± 0.3 mg/dL
- Serum Ca [2, 11]: 15.0 ± 0.5 mg/dL
- Serum P [2, 11]: 8.2 ± 0.4 mg/dL
- nmol PO4 Carotid [3]: 55.2 ± 14.5 nmol
- final length of the tibia ([4]; 6.25 mg P/kg/day plus warfarin 4 weeks, warfarin alone 3.80±0.04, p<0.001): 3.59±0.03 cm
- Ending wt [4, 12]: 238 ± 11 gm
- effect on weight gain [4, 12]: inhibits weight gain
- mg Ca dl serum [4, 12]: 10.9 ± 0.8 mg/dL
- mg P dl serum [4, 12]: 8.1 ± 0.6 mg/dL
- Calcium, Retentate [5, 13]: 2.72 µmol
- MGP, Retentate [5, 13]: 11,630 ng
- Phosphate, Retentate [5, 13]: 1.84 µmol
- Calcium, Filtrate [5, 14]: 1.18 µmol
- MGP, Filtrate [5, 14]: 291 ng
- Phosphate, Filtrate [5, 14]: 2.98 µmol
- Calcium, Initial Serum [5, 15]: 4.30 µmol
- MGP, Initial Serum [5, 15]: 14,800 ng
- Phosphate, Initial Serum [5, 15]: 5.10 µmol
- filtrate MGP [5, 16]: 320 ng
- filtrate calcium [5, 16]: 1.21 µmol
- filtrate phosphate [5, 16]: 2.79 µmol
- retentate MGP [5, 16]: 12,127 ng
- retentate phosphate [5, 16]: 2.02 µmol
- retentate calcium ([5]; 8 mg/100 g, 6 h serum incubated at room temperature for 1 day, then 300 kDa filtration): 2.83 µmol
- retentate and filtrate levels of calcium, phosphate and MGP vs serum filtered immediately ([5]; serum frozen on dry ice and thawed 5 times): comparable
- sedimentation of calcium, phosphate or MGP ([6]; 8 mg/100 g, 6 h serum, 30 minutes at 16,000 x g): unable to demonstrate the sedimentation
- Calcium, Initial Serum [6, 17]: 9.64 µmol
- MGP, Initial Serum [6, 17]: 16,200 ng
- Phosphate, Initial Serum [6, 17]: 7.49 µmol
- Calcium, Dissolved Pellet [6, 18]: 3.27 µmol
- Calcium, Supernatant [6, 18]: 6.88 µmol
- MGP, Dissolved Pellet [6, 18]: 14,400 ng
- MGP, Supernatant [6, 18]: 800 ng
- Phosphate, Dissolved Pellet [6, 18]: 1.68 µmol
- Phosphate, Supernatant [6, 18]: 5.84 µmol
- microradiograph of the proximal tibial metaphysis [7]: alternating bands of calcification and no calcification
- Bone Resorption Relative potency [8]: 1
- transient elevation in serum BGP levels [9]: 3 fold
- dose required to inhibit normal bone mineralization in vivo [10]: about 5 mg P/kg/day
